Experimental data as given in patent US20250041286A1, “CANCER TREATMENT USING KETOTIFEN IN COMBINATION WITH A CHECKPOINT INHIBITOR” (Materia Therapeutics Inc., priority 2021, published 2025).
“Also recorded” adds a separate entry of the source.

What was measured:
Format in all cases: in vivo, mouse
MCA205 cells = experiment: Re-challenge of long-term survivors with MCA205 cells; settings: re-challenge with 2.5×10^5 MCA205 cells s.c., 80 days after resection of primary tumors
Description: Since doxorubicin has potential to establish favorable immunogenic conditions within the TME, which could affect the efficacy of immunotherapy, it was investigated if this immune response is preserved against rechallenge of long-term survivors with the same cell line. Mice were considered long-term survivors if no tumor was detected 80 days after surgical resection of MCA205 primary tumors. Five long-term survivors from each treatment group were further re-challenged with 2.5×10^5 MCA205 cells injected subcutaneously into the flank region. Cells were prepared in 50 μl of PBS. Naïve mice were implanted in parallel as controls.

tumors = experiment: Interstitial fluid pressure, wick-in-needle technique
Description: Interstitial fluid pressure (IFP) was measured in vivo using the “wick-in-needle” technique after mice were anesthetized with i.p. injection of Avertin and prior to tumor excision. Additional information regarding the wick-in-needle technique is described in Dong et al., Involvement of mast cell chymase in burn wound healing in hamsters 2013; 5:643-7 and Shankaran et al. IFNγ and lymphocytes prevent primary tumour development and shape tumour immunogenicity 2001; 410:1107-11, the contents of which are incorporated herein by reference in their entirety.

K7M2wt tumors [1] = experiment: qPCR mRNA expression levels in tumors; settings: 10 mg/kg ketotifen, compared with the effect in MCA205
Description: Total RNA was isolated from breast tumors according to the standard Trizol-based protocol (Invitrogen), and cDNA synthesis was performed using reverse transcriptase III (RT-III) enzyme and random hexamers (Invitrogen). Real-time polymerase chain reaction was performed using Sybr Fast Universal Master Mix (KAPA). Reactions were performed using a CFX-96 real-time PCR detection system (BioRad) at the following conditions: 95° C. for 2 minutes, 95° C. for 2 seconds, 60° C. for 20 seconds, 60° C. for 1 second, steps 2-4 for 39 cycles. Real-time PCR analysis and calculation of changes in gene expression between compared groups was performed using the ΔΔ^Ct method. Relative gene expression was normalized based on the expression of β-actin. For qPCR analysis, 3-5 biological samples were used per treatment and 3 technical replicates for each sample.
mRNA expression levels were evaluated in both mouse sarcoma models by qPCR, as described above.

MCA205 tumors = experiment: Flow cytometry of tumor-infiltrating lymphocytes and myeloid cells; settings: CD11b / Gr-1 flow cytometry
Description: On day 16 of the doxorubicin-anti-PD-L1 combination study (e.g., the study outlined in FIG. 8A), MCA205 tumors were harvested in 1×HBSS (Biosera), minced to fine fragments, and incubated with 1 mg/mL Collagenase D and 0.5 mg/ml DNase I (Roche) in a 37° C. shaker for 30 minutes. Enzymatic digestion was ceased by the addition of RPMI media containing 10% FBS and 1% antibiotic/antimycotic solution. The tissue homogenates were then filtered through 40 μm cell strainers. Red blood cells were removed by ACK Lysing buffer (A1049201, Gibco) and single cell suspensions were collected and used to a final concentration 1×10^6 cells per sample. Cells were then incubated with fixable viability dye (eBioscience, 1:1000) for 10 minutes on ice for gating of viable cells. Non-specific antibody binding was blocked following incubation with the rat anti-mouse CD16/CD32 mAb (BD Bioscience) for 20 minutes on ice. […]
Foxp3-AF488 (BD Bioscience) staining was performed following fixation and permeabilization process using the Foxp3/Transcription Factor Staining Buffer Set (00-5523-00, eBioscience). […] Flow cytometry data were obtained using BD FACSLyric flow cytometer and analyzed using BD FACSuite™ Software. […]

K7M2wt tumors [2] = experiment: Hypoxia study, pimonidazole adduct immunofluorescence; settings: 10 mg/kg ketotifen
Description: Mice bearing orthotopic MCA205 or K7M2wt sarcoma tumors were injected (intraperitoneal) with 60 mg/kg of pimonidazole HCl at 2 hours prior to tumor removal. Tumors were removed, washed twice in 1×PBS for 10 minutes and incubated with 4% PFA overnight at 4° C. The fixative was aspirated, and samples were washed twice in 1×PBS for 10 min. Tissue samples were dehydrated in successive ethanol steps and xylene followed by paraffin embedding. Serial sections ([…]) of paraffin-embedded tissues were produced using the microtome (Accu-Cut SRM 200 Rotary Microtome, SAKURA), flattened out into water, and allowed to dry overnight at 37° C. Sections were then deparaffinized and rehydrated as routinely processed for histology. Slides were microwaved in TriSodium Citrate, blocked in serum solution, and incubated with mouse anti-pimonidazole RED 549 conjugate antibody (HP7-100Kit, 1:100) overnight at 4° C. The next day slides were washed, nuclei were stained with DAPI, and tissue sections were mounted. Immunofluorescence images of the slides were taken (FIG. 1A), and hypoxic area fraction across different treatment groups was normalized to DAPI staining.
Immunofluorescence staining for Ki67 and CD8, performed as described above, confirmed the activation status of recruited CD8^+ T cells in osteosarcoma tumors (K7M2wt tumors) (FIGS. 9C-9D). […]

SMILES: CN1CCC(=C2c3ccccc3CC(=O)c3sccc32)CC1 [ketotifen]
- tumor development after re-challenge (mice out of five long-term survivors per group) (MCA205 cells): developed progressively growing tumors
- interstitial fluid pressure (IFP) (tumors; 10 mg/kg dose compared with the other doses): greatest effect
- interstitial fluid pressure (IFP) (tumors; all doses of ketotifen, daily for 7 days): reduces; also recorded: reduction in IFP levels
- mRNA levels of Col1A1, CTGF, Has2, Has3 (K7M2wt tumors [1]): A similar effect was observed
- recruitment of immunosuppressive cell populations (MDSCs) (MCA205 tumors): reducing the recruitment of immunosuppressive cell populations; also recorded: decreasing the polarization of immature myeloid cell population into MDSCs
- pimonidazole positive fraction (hypoxia) (K7M2wt tumors [2]): significantly reduced; also recorded: alleviated hypoxia
